Experimental data: patent publication US20080207521A1, “PEPTIDE LIGAND TO IMPAIR CANCER CELL MIGRATION” (priority 2005, published 2008)

Key:
Type in all cases: cell-based, human
[1] = tested on: Wnt-5a antisense HB2 cells; experiment: Migration of Wnt-5a antisense HB2 cells in modified Boyden chamber; conditions: 95% pure peptide 100 μM; 18 h
Protocol: (§1) Cell migration analyses were performed in a modified Boyden chamber with a polycarbonate membrane (10 μm thick with a porous diameter of 8.0 μm) separating the two chambers (Transwell®; Costar, Cambridge, Mass.). As indicated in some experiments the membranes were coated with collagen by adding collagen-I (10 μg/ml) diluted in 0.25% acetic acid to the upper chamber for 1 h at 37° C., after which it was washed three times with PBS. Each experiment was initiated by detaching the cells by Versene treatment for 10-20 min at 37° C., washed, and re-suspended as a single cell suspension in serum-free DMEM medium supplemented with 0.5% BSA. Together with the indicated agonist a 0.2 ml cell suspension (containing 25,000 MDA-MB-468 or 50,000 HB2 cells) was then added to the upper chamber of the transwell. The lower chamber was filled with 0.6 ml serum-free but BSA-containing DMEM medium supplemented with 1 ng/ml of the chemoattractant IGF-I. As a control, IGF-I was excluded in some wells in each separate experiment. The cells were allowed to migrate in the Boyden chamber for 18 h at 37° C. in a humidified atmosphere of 95% air and 5% CO2. The experiments were terminated by removing the non-migratory cells with a cotton-tipped applicator from the upper surface of the membranes. The remaining cells on the lower surface that had migrated through the membrane were stained for 20 min with 0.5% crystal violet diluted in 20% methanol/80% water. After washing the membranes the number of stained cells per membrane and well was counted in an inverted microscope. The value from each separate experiment represents the median value of three individual wells.
Effects of the selected and pure peptides on the ability of Wnt-5a antisense HB2 cells to adhere and migrate. (A-E) The ability of the cells to adhere to collagen type I-coated wells was analyzed as previously described for FIG. 2 in the absence or presence of different concentrations of the indicated peptide. (F) Effect of the indicated peptides on migration of Wnt-5a antisense HB2 in a transwell migration assay. The cells were allowed to migrate for 18 h in the absence or presence of 100 μM peptide or 0.4 μg/ml of recombinant Wnt5a. The data are given as means±SEM of 6-7 separate experiments, each performed in triplicate. * p<0.05 and ** p<0.01.

DDR1 = experiment: Collagen-induced DDR1 phosphorylation in Wnt-5a antisense HB2 cells (immunoprecipitation/Western blot); conditions: crude peptide (approximately 65% pure) 100 μM; 90 min on collagen I
Protocol: The phosphorylation status of DDR1 was analyzed as previously described (12), with the following modifications. After serum-depletion for 16 h, the cells were detached with Versene and then allowed to adhere to collagen I for 60 (MDA-MB-468) or 90 min (HB2) at 37° C. The experiments were terminated by lysing both adherent and non-adherent cells with a lysis buffer (50 mM Tris pH 7.4, 1% Triton-X, 5 mM EDTA, 5 mM EGTA, 50 mM NaCl, 10 μg/ml aprotinin, 2.5 mM benzamidine, 1 mM pefabloc, 1 μg/ml leupeptin and 1 mM Na3VO4). For immunoblotting an anti-DDR1 rabbit polyclonal Ab, sc-532 (Santa Cruz Biotech, Santa Cruz, Calif.) was used at a dilution of 1:10,000. The Ab recognizes DDR1b/c, which is essential because collagen only induces phosphorylation of the b or c isoforms of DDR1 in mammary epithelial cells (10).
Effects of crude peptides on collagen-induced DDR1 phosphorylation in Wnt-5a antisense HB2 cells. Single cells were allowed to adhere to collagen I-coated plates in the presence of the indicated crude peptide (100 μM). (A) Experiments performed in the presence of peptides 167-173. (B) Experiments performed in the presence of peptides 175-180. After 90 min the cells were lysed and DDR1 immunoprecipitated. Subsequently, the immunoprecipitates were subjected to Western blot analysis with an anti-phosphotyrosine Ab and then, after stripping, with an anti-DDR1 Ab to ascertain equal loading. The blots shown are representative of 3 separate experiments The diagrams show densitometric analysis of DDR1 phosphorylation, expressed as per cent of control.

MDA-MB-468 cells = experiment: Migration of MDA-MB-468 cells in modified Boyden chamber; conditions: 18 h; for migration: pure peptide 100 μM
Protocol: The HB2 mammary epithelial cell line, a subclone of the MTSV-1.7 cell line, originating from the laboratory of Dr. J. Taylor-Papadimitriou (11) was used. The HB2 cells were cultured in DMEM supplemented with 10% FBS, 5 U/mi penicillin, 0.5 U/ml streptomycin, 2 mM glutamine, 10 μg/ml bovine insulin and 5 μg/ml hydrocortisone. The human mammary carcinoma cell lines MCF-7 and MDA-MB-468 were cultured in DMEM supplemented with 10% FBS, 5 U/ml penicillin, 0.5 U/ml streptomycin and 2 mM glutamine. The pH-experiments were done in MEM supplemented with 10 mM Tris, 0.5% BSA, 5 U/ml penicillin, 0.5 U/ml streptomycin and 2 mM glutamine. The pH 7.4-medium was further supplemented with 4 mM sodium bicarbonate whereas the pH 6.7-medium was not. All cells were incubated at 37° C. in 95% air and 5% CO2.
as §1
Peptide-induced effects on MDA-MB-468 tumour cell migration and their content of F-actin. (A) The cells were allowed to migrate for 18 h in the absence or presence of the indicated peptides (100 μM) The data in panel A are expressed as means±SEM of 8 separate experiments, each performed in triplicate. * p<0.05. (B) The cells were allowed to adhere to collagen I-coated cover glasses for 18h in the absence or presence of peptide 175 (100 μM). The cells were then stained with Alexa488-Phalloidin as described in the methods section. The illustrated micrographs are representative of 5 separate experiments.
Effects of peptide 175 modifications on its ability to induce MDA-MB-468 tumour cell adhesion and migration. (A) The cells were allowed to adhere for 60 min to collagen-I coated wells in the absence or presence of peptide 175, three stepwise N-terminal deletion variants of peptide 175 or a formylated version of the tested hexapeptide derived from peptide 175. The amounts of adhesive cells were analyzed as described in the methods and the results are given as means±SEM of 6 separate experiments. (B and C) The cells were allowed to migrate for 18 h in the absence or presence of 1 or 10 μM of peptide 175 (B) or the formylated hexapeptide (C). The data are given as means±SEM of 6 separate experiments, each performed in triplicate. * p<0.05, p<0.01.
Effects of Frz-5 receptor blocking and reduced pH on the abilities of the formylated hexapeptide and Wnt-5a to inhibit tumour cell migration. […]

| Sequence | migration [1] | DDR1 phosphorylation (DDR1) | migration (MDA-MB-468 cells) | motility (migration) (MDA-MB-468 cells; 10 μM) |
| --- | --- | --- | --- | --- |
| SQLAGLSQGQKKL [peptide 171, Wnt-5a aa 55-67; negative control] | no effect on migration | no DDR1 phosphorylation | no statistically significant effect | – |
| NKTSEGMDGCEL (Human) [peptide 175, Wnt-5a aa 311-322] | effectively decreased the migration | significant DDR1 phosphorylation | significantly decreased the migration | significantly impaired the motility |
| ADFRKVGDALKEKYD [peptide 169, Wnt-5a aa 242-256] | effectively decreased the migration | significant DDR1 phosphorylation | significantly decreased the migration | – |
